Marks after values point to notes of the source that are not given here.
Assays:
[1] = system: UVB-Induced Dermal Damage in the Hairless Mouse; assay: Repair of UVB-induced dermal damage in the hairless mouse (repair zone by histology, Luna's stain, image analyzer); format: in vivo, Hairless mice (HRS/J strain); conditions: three times per week, 10 weeks, total area per twenty microscopic fields
Source text: Hairless mice (HRS/J strain, Jackson Labs, 5-7 weeks old at the start of the experiments) were irradiated three times per week with a bank of 8 Westinghouse® Sunlamps (FS40) placed about 20cm above the animals. The radiation dose was controlled by an International Light Model IL844A Phototherapy Exposure Control and a detector. The UVB dosing schedule was such that individual doses, seldom exceeding 0.06J/cm², caused minimal erythema but no burning or scarring. There was significant elastosis, detected by histology, after a total dose of about 3.5J/cm²: this was confirmed in measurements of elastin in whole skin by means of a radioimmunoassay for desmosine. Desmosine is found in elastin hydrolysates and is derived from crosslinks in the elastin molecule; it is a reliable index of total elastin. Typically, desmosine increased by about 2-3 fold after 3.5J/cm² of UVB irradiation. To effect repair of the dermal damage, the UVB irradiation was discontinued and animals were treated three times per week with various concentrations of the compounds of formula I dissolved in acetone. Solutions were made up freshly every week at concentrations such that the dose was delivered in 100µl acetone and applied topically to an area of about 10 cm² on the back of the animal with a plastic pipette; a control group treated with acetone alone was also included. After 10 weeks of treatment the animals were sacrificed, skin samples were taken and processed by standard methods. A six µm [micron] section from each animal was stained for elastin with Luna's stain and the degree of repair measured quantitatively. In this model, repair is defined by the appearance of a normalized dermis extending from the epidermis down to the layer of compressed elastin. The extent of repair was reflected by the width of this zone. In these studies, the area of the zone on a standard length of histological section was measured by an image analyzer and the results are given as total area in mm² per twenty microscopic fields. Data was analyzed by Student's t-test. The results are given in Table I. In Table I, and Table II each group dosed at a particular concentration of compound of formula I contained six to ten animals.

[2] = system: Wrinkles Produced in Hairless Mice by UVB-Irradiation; assay: Effect on wrinkles produced in hairless mice by UVB irradiation (skin replica, visual Wrinkle Index); format: in vivo
Source text: Hairless mice (HRS/J strain, Jackson Labs, 5-7 weeks old at the start of the experiments) were irradiated three times per week with a bank of 8 Westinghouse® Sunlamps (FS40) placed about 20cm above the animals. The radiation dose was controlled by an International Light Model IL844A Phototherapy Exposure Control and a detector. The UVB dosing schedule was such that individual doses, seldom exceeding 0.06J/cm², caused minimal erythema but no burning or scarring. There was significant elastosis, detected by histology, after a total dose of about 3.5J/cm²: this was confirmed in measurements of elastin in whole skin by means of a radioimmunoassay for desmosine. Desmosine is found in elastin hydrolysates and is derived from crosslinks in the elastin molecule; it is a reliable index of total elastin. Typically, desmosine increased by about 2-3 fold after 3.5J/cm² of UVB irradiation. To effect repair of the dermal damage, the UVB irradiation was discontinued and animals were treated three times per week with various concentrations of the compounds of formula I dissolved in acetone. Solutions were made up freshly every week at concentrations such that the dose was delivered in 100µl acetone and applied topically to an area of about 10 cm² on the back of the animal with a plastic pipette; a control group treated with acetone alone was also included.
One skin replica for each animal was taken of these areas using a liquid dental impression material (SILFLO® - Flexico Developments Ltd., England). Wrinkles appeared in these impressions as ridges which cast a shadow when illuminated with low angle light. A characteristic of the wrinkling pattern was the occurrence of the ridges in a regularly-spaced array about 2-mm apart. The extent of wrinkling was visually assessed using this line pattern and assigned a value (Wrinkle Index) of zero to 4 with zero representing complete effacement of wrinkling and 4 representing the maximum degree of wrinkling. It was observed that compounds of formula I caused a dose-dependent effacement of the wrinkles with ED₅₀ values in the microgram range.

SMILES: C/C(=C\c1ccc(SC(=O)N(C)C)cc1)c1ccc2c(c1)C(C)(C)CCC2(C)C [Compound A]
- Repair Zone ([1]; 0.1 µg topical in 100 µl acetone): 0.005 +/- 0.001 mm²
- Repair Zone ([1]; 0.5 µg topical in 100 µl acetone): 0.006 +/- 0.003 mm²
- Repair Zone ([1]; 2.0 µg topical in 100 µl acetone, P < 0.05 vs Control): 0.021 +/- 0.003* mm²
- Repair Zone ([1]; 10.0 µg topical in 100 µl acetone): 0.015 +/- 0.004 mm²
- Repair Zone ([1]; 50.0 µg topical in 100 µl acetone, P < 0.05 vs Control): 0.025 +/- 0.007* mm²
- Wrinkle Index ([2]; 0.1 µg topical, scale zero (complete effacement) to 4 (maximum wrinkling)): 1.4 +/- 0.5
- Wrinkle Index ([2]; 0.5 µg topical, scale zero to 4, P < 0.05 vs Control): 1.0 +/- 0.3*
- Wrinkle Index ([2]; 2.0 µg topical, scale zero to 4, P < 0.01 vs Control): 0.8 +/- 0.2**
- Wrinkle Index ([2]; 10.0 µg topical, scale zero to 4, P < 0.001 vs Control): 0.3 +/- 0.1***
- Wrinkle Index ([2]; 50.0 µg topical, scale zero to 4, P < 0.001 vs Control): 0.3 +/- 0.1***
